The source of these data is patent publication US7173004B2, “Macrocyclic isoquinoline peptide inhibitors of hepatitis C virus” (Bristol-Myers Squibb Company, priority 2003, dated 2007).

This test has as its system HCV replicon (HCV 1b-377-neo replicon cells, Huh7). As to the kind of experiment: HCV replicon cell-based FRET assay. The note with it: Hepatitis C virus, Huh-7. The procedure, abridged:
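Huh7 cells carrying a neo-selectable genotype 1b HCV replicon (~3,000 RNA copies/cell) were seeded at 1.5×10^4 cells/well and treated 4 days at 37 °C (0.5% DMSO final). CC50 was read by alamar Blue (4 h, ex 530/em 580 nm). Lysates with 10 μM EDANS/DABCYL NS3 protease FRET peptide were read kinetically (ex 340/em 490 nm, 25 °C, ~15 min) for % inhibition.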
In general terms: A replicon is a self-replicating genome or part of one, used to study replication in cells.
On to `CC(C)(C)OC(=O)NC1CN(C(=O)C2CC2)CCCC=CC2CC2(C(=O)NS(=O)(=O)C2CC2)NC(=O)C2CC(Oc3nccc4ccccc34)CN2C1=O` (centres unmarked) [Compound 152], for which the EC50 lay within 50 to 500 nM. `COc1ccc2c(OC3CC4C(=O)NC5(C(=O)NS(=O)(=O)C6CC6)CC5C=CCCCCCC(NC(=O)OC(C)(C)C)C(=O)N4C3)nccc2c1OC` (centres unmarked) [Compound 134] came in with an EC50 of less than 50 nM. For the compound `COc1ccc2c(OC3CC4C(=O)NC5(C(=O)NS(=O)(=O)C6CC6)CC5C=CCOCCCC(NC(=O)OC(C)C)C(=O)N4C3)nc(-c3ccccc3)cc2c1` (centres unmarked) [Compound 98], the 50% effective concentration (EC50) was less than 50 nM.

`CC(C)(OC(=O)NC1CCCCCC=CC2CC2(C(=O)NS(=O)(=O)C2CC2)NC(=O)C2CC(Oc3nccc4ccccc34)CN2C1=O)C(Cl)(Cl)Cl` (centres unmarked) [Compound 124]: the EC50 is less than 50 nM. Consider `CN1CCC/C=C\[C@@H]2C[C@@]2(C(=O)NS(=O)(=O)C2CC2)NC(=O)[C@@H]2C[C@@H](Oc3nccc4ccccc34)CN2C(=O)[C@@H](NC(=O)OC(C)(C)C)C1` [Compound 147], for which the EC50 is less than 50 nM. Next, `COc1ccc2c(OC3CC4C(=O)NC5(C(=O)NS(=O)(=O)C6CC6)CC5C=CCOCCCC(NC(=O)N5CCCC5)C(=O)N4C3)nc(-c3ccccc3)cc2c1` (centres unmarked) [Compound 100]: less than 50 nM; `COc1ccc2c(OC3CC4C(=O)NC5(C(=O)NS(=O)(=O)C6CC6)CC5C=CCCCOCC(NC(=O)NC(C)(C)C)C(=O)N4C3)nc(-c3ccc(N(C)C)cc3)cc2c1` (centres unmarked) [Compound 108]: less than 50 nM; `COc1ccc2c(OC3CC4C(=O)NC5(C(=O)NS(=O)(=O)C6CC6)CC5C=CCCCOCC(NC(=O)NC(C)(C)C)C(=O)N4C3)nc(-c3ccccc3)cc2c1` (centres unmarked) [Compound 92]: less than 50 nM. Next, `COc1ccc2c(OC3CC4C(=O)NC5(C(=O)NS(=O)(=O)C6CC6)CC5C=CCCCCCC(NC(=O)OC(C)(C)C)C(=O)N4C3)nccc2c1F` (centres unmarked) [Compound 132]: less than 50 nM; `CC(C)(C)OC(=O)N[C@H]1CNCCC/C=C\[C@@H]2C[C@@]2(C(=O)NS(=O)(=O)C2CC2)NC(=O)[C@@H]2C[C@@H](Oc3nccc4ccccc34)CN2C1=O` [Compound 151]: 50 to 500 nM.

`COc1ccc2c(OC3CC4C(=O)NC5(C(=O)NS(=O)(=O)C6CC6)CC5C=CCOCCCC(NC(=O)OC5CCCC5)C(=O)N4C3)nc(-c3ccccc3)cc2c1` (centres unmarked) [Compound 99] came in with an EC50 of less than 50 nM.

`COC(=O)N1CCC/C=C\[C@@H]2C[C@@]2(C(=O)NS(=O)(=O)C2CC2)NC(=O)[C@@H]2C[C@@H](Oc3nccc4ccccc34)CN2C(=O)[C@@H](NC(=O)OC(C)(C)C)C1` [Compound 148] had an EC50 of 50 to 500 nM.

`CCSC(=O)NC1CCCCCC=CC2CC2(C(=O)NS(=O)(=O)C2CC2)NC(=O)C2CC(Oc3nccc4ccccc34)CN2C1=O` (centres unmarked) [Compound 118] came in with an EC50 of less than 50 nM. Next, `COc1ccc2c(O[C@@H]3C[C@H]4C(=O)N[C@]5(C(=O)NS(=O)(=O)C6CC6)C[C@H]5/C=C\COCC[C@H](NC(=O)OC(C)(C)C)C(=O)N4C3)nccc2c1` [Compound 141, [(Z)-(1S,4R,13S,17R)-4-cyclopropanesulfonylaminocarbonyl-17-(6-methoxy-isoquinolin-1-yloxy)-2,14-dioxo-10-oxa-3,15-diaza-tricyclo[13.3.0.0^4,6]octadec-7-en-13-yl]-carbamic acid tert-butyl ester]: 500 to 5000 nM; `COc1ccc2c(OC3CC4C(=O)NC5(C(=O)NS(=O)(=O)C6CC6)CC5C=CCCCOCC(NC(=O)OC(C)C)C(=O)N4C3)nccc2c1` (centres unmarked) [Compound 89]: less than 50 nM; `CC(=O)N1CCC/C=C\[C@@H]2C[C@@]2(C(=O)NS(=O)(=O)C2CC2)NC(=O)[C@@H]2C[C@@H](Oc3nccc4ccccc34)CN2C(=O)[C@@H](NC(=O)OC(C)(C)C)C1` [Compound 146]: 500 to 5000 nM. As to `COc1ccc2c(OC3CC4C(=O)NC5(C(=O)NS(=O)(=O)C6CC6)CC5C=CCCCSC(C)(C)C(NC(=O)NC(C)(C)C)C(=O)N4C3)nccc2c1` (centres unmarked) [Compound 81], the EC50 lay within 50 to 500 nM. Next, `CC(C)(C)NC(=O)N[C@H]1CCCCC/C=C\[C@@H]2C[C@@]2(C(=O)NS(=O)(=O)C2CC2)NC(=O)[C@@H]2C[C@@H](Oc3nccc4ccccc34)CN2C1=O` [Compound 126]: less than 50 nM. Next, `COc1ccc2c(OC3CC4C(=O)NC5(C(=O)NS(=O)(=O)C6CC6)CC5C=CCOCCCC(NC(=O)OCC(C)(C)C)C(=O)N4C3)nc(-c3ccccc3)cc2c1` (centres unmarked) [Compound 103]: less than 50 nM. `CC(C)(C)OC(=O)N[C@H]1CN(S(=O)(=O)c2ccccc2[N+](=O)[O-])CCC/C=C\[C@@H]2C[C@@]2(C(=O)NS(=O)(=O)C2CC2)NC(=O)[C@@H]2C[C@@H](Oc3nccc4ccccc34)CN2C1=O` [Compound 145] showed a half-maximal effective concentration (EC50) of 50 to 500 nM. In the case of `CC(C)(C)CC(C)(C)NC(=O)NC1CCCCCC=CC2CC2(C(=O)NS(=O)(=O)C2CC2)NC(=O)C2CC(Oc3nccc4ccccc34)CN2C1=O` (centres unmarked) [Compound 129] it was less than 50 nM. `COc1ccc2c(OC3CC4C(=O)NC5(C(=O)NS(=O)(=O)C6CC6)CC5C=CCOCCCC(NC(=O)N5CCNC5=O)C(=O)N4C3)nc(-c3ccccc3)cc2c1` (centres unmarked) [Compound 106] registered an EC50 of 500 to 5000 nM. Next, `CC(C)(C)OC(=O)NC1CCCCCC=CC2CC2(C(=O)NS(=O)(=O)C2CC2)NC(=O)C2CC(Oc3nccc4c(Cl)cccc34)CN2C1=O` (centres unmarked) [Compound 130]: less than 50 nM; `CC(C)(C)OC(=O)N[C@H]1CN(S(C)(=O)=O)CCC/C=C\[C@@H]2C[C@@]2(C(=O)NS(=O)(=O)C2CC2)NC(=O)[C@@H]2C[C@@H](Oc3nccc4ccccc34)CN2C1=O` [Compound 153]: 50 to 500 nM. `CC(=O)C(C)(C)OC(=O)NC1CCCCCC=CC2CC2(C(=O)NS(=O)(=O)C2CC2)NC(=O)C2CC(Oc3nccc4ccccc34)CN2C1=O` (centres unmarked) [Compound 123] had an EC50 of 50 to 500 nM.

As to `CC(C)(C)COC(=O)N1CCCC=CC2CC2(C(=O)NS(=O)(=O)C2CC2)NC(=O)C2CC(Oc3nccc4ccccc34)CN2C(=O)C(NC(=O)OC(C)(C)C)C1` (centres unmarked) [Compound 149], the EC50 fell in the range of 50 to 500 nM.

What is called EC50 is the concentration giving half of the maximal effect. A high value points to a need for much substance.
